Experimental findings from patent US20190284136A1, “INDOLINE DERIVATIVES” (ViiV HEALTHCARE UK LIMITED, priority 2016, published 2019) are described below.

This assay concerns HIV. Put plainly: Table 1 IC50 of the examples (assay method not given; patent concerns inhibiting HIV replication). The assay is classed as cell-based. The note with it: Human immunodeficiency virus 1.
A word on the IC50: it is the concentration that inhibits the measured activity by half. High values mean a need for much substance, low ones inhibition by little substance. `COc1cc(Cl)ccc1C(=O)N1CCc2c1cc(C)c([C@H](OC(C)(C)C)C(=O)O)c2-c1cc(F)c2c(c1C)CCCO2` (atropisomer, axis not shown) [Example 72, (S)-2-(tert-Butoxy)-2-((R)-1-(4-chloro-2-methoxybenzoyl)-4-(8-fluoro-5-methylchroman-6-yl)-6-methylindolin-5-yl)acetic acid] gave a 50% inhibitory concentration (IC50) of 0.007 µM. `Cc1cc2c(c(-c3cc(F)c4c(c3C)CCCO4)c1[C@H](OC(C)(C)C)C(=O)O)CCN2C(=O)c1ccc(Cl)cc1C(F)(F)F` (atropisomer, axis not shown) [Example 156, (S)-2-(tert-Butoxy)-2-((R)-1-(4-chloro-2-(trifluoromethyl)benzoyl)-4-(8-fluoro-5-methylchroman-6-yl)-6-methylindolin-5-yl)acetic acid] came in with an IC50 of 0.005 µM. The compound `Cc1ccc(-c2c3c(cc(C)c2[C@H](OC(C)(C)C)C(=O)O)N(S(=O)(=O)c2ccc(F)c(F)c2)CC3)cc1` [Example 35, (S)-2-(tert-Butoxy)-2-(1-((3,4-difluorophenyl)sulfonyl)-6-methyl-4-(p-tolyl)indolin-5-yl)acetic acid] yielded an IC50 of 9.8 µM. In the case of `COc1cccc(C(=O)N2CCc3c2cc(C)c([C@H](OC(C)(C)C)C(=O)O)c3-c2ccc(C)cc2)c1` [Example 16, (S)-2-(tert-Butoxy)-2-(1-(3-methoxybenzoyl)-6-methyl-4-(p-tolyl)indolin-5-yl)acetic acid], half-maximal inhibition (IC50) required 0.012 µM. In the case of `COc1ccc(C(=O)N2CCc3c2cc(C)c([C@H](OC(C)(C)C)C(=O)O)c3-c2cc(OC)c3c(c2C)CCCO3)cc1C` (atropisomer, axis not shown) [Example 192, (S)-2-(tert-Butoxy)-2-((R)-1-(4-methoxy-3-methylbenzoyl)-4-(8-methoxy-5-methylchroman-6-yl)-6-methylindolin-5-yl)acetic acid] it was 0.005 µM.

The compound `Cc1cncc(C(=O)N2CCc3c2cc(C)c([C@H](OC(C)(C)C)C(=O)O)c3-c2cc(F)c3c(c2C)CCCO3)c1` (atropisomer, axis not shown) [Example 81, (S)-2-(tert-Butoxy)-2-((R)-4-(8-fluoro-5-methylchroman-6-yl)-6-methyl-1-(5-methylnicotinoyl)indolin-5-yl)acetic acid] gave a concentration for half-maximal inhibition (IC50) of 0.014 µM. To `Cc1cc2c(c(-c3cc(F)c4c(c3C)CCCO4)c1[C@H](OC(C)(C)C)C(=O)O)CCN2C(=O)c1cccnc1C` (atropisomer, axis not shown) [Example 173, (S)-2-(tert-butoxy)-2-((R)-4-(8-fluoro-5-methylchroman-6-yl)-6-methyl-1-(2-methylnicotinoyl)indolin-5-yl)acetic acid] belongs 0.013 µM; to `Cc1ccc(-c2c3c(cc(C)c2[C@H](OC(C)(C)C)C(=O)O)N(S(=O)(=O)C2CCCCC2)CC3)cc1` [Example 28, (S)-2-(tert-Butoxy)-2-(1-(cyclohexylsulfonyl)-6-methyl-4-(p-tolyl)indolin-5-yl)acetic acid], 11.4 µM. For the compound `COc1cnccc1C(=O)N1CCc2c1cc(C)c([C@H](OC(C)(C)C)C(=O)O)c2-c1cc(F)c2c(c1C)CCCO2` (atropisomer, axis not shown) [Example 171, (S)-2-(tert-Butoxy)-2-((R)-4-(8-fluoro-5-methylchroman-6-yl)-1-(3-methoxyisonicotinoyl)-6-methylindolin-5-yl)acetic acid], the IC50 was determined as 0.014 µM. To `Cc1cc2c(c(-c3cc(F)c4c(c3C)CCCO4)c1[C@H](OC(C)(C)C)C(=O)O)CCN2C(=O)c1ccc(C(F)(F)F)cc1Cl` (atropisomer, axis not shown) [Example 144, (S)-2-(tert-Butoxy)-2-((R)-1-(2-chloro-4-(trifluoromethyl)benzoyl)-4-(8-fluoro-5-methylchroman-6-yl)-6-methylindolin-5-yl)acetic acid] belongs 0.026 µM; to `COc1ccc(C(=O)N2CCc3c2cc(C)c([C@H](OC(C)(C)C)C(=O)O)c3-c2cc(F)c3c(c2C)CCCO3)cn1` (atropisomer, axis not shown) [Example 170, (S)-2-(tert-Butoxy)-2-((R)-4-(8-fluoro-5-methylchroman-6-yl)-1-(6-methoxynicotinoyl)-6-methylindolin-5-yl)acetic acid], 0.014 µM. In turn, `COc1c(F)ccc(F)c1C(=O)N1CCc2c1cc(C)c([C@H](OC(C)(C)C)C(=O)O)c2-c1ccc(C)cc1` [Example 15, (S)-2-(tert-Butoxy)-2-(1-(3,6-difluoro-2-methoxybenzoyl)-6-methyl-4-(p-tolyl)indolin-5-yl)acetic acid] registered an IC50 of 0.117 µM. As for `Cc1cc2c(c(-c3cc(F)c4c(c3C)CCCO4)c1[C@H](OC(C)(C)C)C(=O)O)CCN2C(=O)c1cccc(C(F)(F)F)c1` (atropisomer, axis not shown) [Example 93, (S)-2-(tert-Butoxy)-2-((R)-4-(8-fluoro-5-methylchroman-6-yl)-6-methyl-1-(3-(trifluoromethyl)benzoyl)indolin-5-yl)acetic acid], 0.019 µM corresponded to half-maximal inhibition (IC50). In the case of `Cc1cc2c(c(-c3cc(F)c4c(c3C)CCCO4)c1[C@H](OC(C)(C)C)C(=O)O)CCN2C(=O)c1cccc(Cl)c1C` (atropisomer, axis not shown) [Example 66, (S)-2-(tert-Butoxy)-2-((R)-1-(3-chloro-2-methylbenzoyl)-4-(8-fluoro-5-methylchroman-6-yl)-6-methylindolin-5-yl)acetic acid] it was 0.006 µM; in that of `Cc1cc2c(c(-c3cc(F)c4c(c3C)CCCO4)c1[C@H](OC(C)(C)C)C(=O)O)CCN2C(=O)c1ccc2c(c1)CCC2` (atropisomer, axis not shown) [Example 122, (S)-2-(tert-Butoxy)-2-((R)-1-(2,3-dihydro-1H-indene-5-carbonyl)-4-(8-fluoro-5-methylchroman-6-yl)-6-methylindolin-5-yl)acetic acid], 0.017 µM; in that of `Cc1cc2c(c(-c3cc(F)c4c(c3C)CCCO4)c1[C@H](OC(C)(C)C)C(=O)O)CCN2C(=O)c1cc(C(F)(F)F)ccc1Cl` (atropisomer, axis not shown) [Example 154, (S)-2-(tert-Butoxy)-2-((R)-1-(2-chloro-5-(trifluoromethyl)benzoyl)-4-(8-fluoro-5-methylchroman-6-yl)-6-methylindolin-5-yl)acetic acid], 0.052 µM. In turn, `COc1c(C)cccc1C(=O)N1CCc2c1cc(C)c([C@H](OC(C)(C)C)C(=O)O)c2-c1cc(F)c2c(c1C)CCCO2` (atropisomer, axis not shown) [Example 87, (S)-2-(tert-Butoxy)-2-((R)-4-(8-fluoro-5-methylchroman-6-yl)-1-(2-methoxy-3-methylbenzoyl)-6-methylindolin-5-yl)acetic acid] showed a half-maximal inhibitory concentration (IC50) of 0.005 µM. Regarding `Cc1ccc(-c2c3c(cc(C)c2[C@H](OC(C)(C)C)C(=O)O)N(S(=O)(=O)N2CCCCC2)CC3)cc1` [Example 36, (S)-2-(tert-Butoxy)-2-(6-methyl-1-(piperidin-1-ylsulfonyl)-4-(p-tolyl)indolin-5-yl)acetic acid], half-maximal inhibition (IC50) required 0.065 µM. In the case of `Cc1ccc(-c2c3c(cc(C)c2[C@H](OC(C)(C)C)C(=O)O)N(C(=O)c2ccncc2)CC3)cc1` [Example 40, (S)-2-(tert-Butoxy)-2-(1-isonicotinoyl-6-methyl-4-(p-tolyl)indolin-5-yl)acetic acid] it was 0.283 µM. In the case of `COc1c(Cl)cccc1C(=O)N1CCc2c1cc(C)c([C@H](OC(C)(C)C)C(=O)O)c2-c1cc(F)c2c(c1C)CCCO2` (atropisomer, axis not shown) [Example 75, (S)-2-(tert-Butoxy)-2-((R)-1-(3-chloro-2-methoxybenzoyl)-4-(8-fluoro-5-methylchroman-6-yl)-6-methylindolin-5-yl)acetic acid], 0.00661 µM corresponded to half-maximal inhibition (IC50). `COc1cc(C(=O)N2CCc3c2cc(C)c([C@H](OC(C)(C)C)C(=O)O)c3-c2cc(F)c3c(c2C)CCCO3)ccc1F` (atropisomer, axis not shown) [Example 142, (S)-2-(tert-Butoxy)-2-((R)-1-(4-fluoro-3-methoxybenzoyl)-4-(8-fluoro-5-methylchroman-6-yl)-6-methylindolin-5-yl)acetic acid] showed an IC50 of 0.002 µM.

Compound `Cc1ccc(-c2c3c(cc(C)c2C(OC(C)(C)C)C(=O)O)N(C(=O)Nc2ccc(F)cc2)CC3)cc1` (centres unmarked) [Example 7, 2-(tert-Butoxy)-2-(1-((4-fluorophenyl)carbamoyl)-6-methyl-4-(p-tolyl)indolin-5-yl)acetic acid] yielded an IC50 of 3.01 µM.

In turn, `COc1cc(C)ccc1C(=O)N1CCc2c1cc(C)c([C@H](OC(C)(C)C)C(=O)O)c2-c1cc(F)c2c(c1C)CCCO2` (atropisomer, axis not shown) [Example 159, (S)-2-(tert-Butoxy)-2-((R)-4-(8-fluoro-5-methylchroman-6-yl)-1-(2-methoxy-4-methylbenzoyl)-6-methylindolin-5-yl)acetic acid] had an IC50 of 0.004 µM. In the case of `COc1ccc(C(=O)N2CCc3c2cc(C)c([C@H](OC(C)(C)C)C(=O)O)c3-c2cc(F)c3c(c2C)CCCO3)cc1OC` (atropisomer, axis not shown) [Example 86, (S)-2-(tert-Butoxy)-2-((R)-1-(3,4-dimethoxybenzoyl)-4-(8-fluoro-5-methylchroman-6-yl)-6-methylindolin-5-yl)acetic acid] it was 0.005 µM; in that of `Cc1cc2c(c(-c3cc(F)c4c(c3C)CCCO4)c1[C@H](OC(C)(C)C)C(=O)O)CCN2C(=O)c1cc(Cl)cc(C(F)(F)F)c1` (atropisomer, axis not shown) [Example 147, (S)-2-(tert-Butoxy)-2-((R)-1-(3-chloro-5-(trifluoromethyl)benzoyl)-4-(8-fluoro-5-methylchroman-6-yl)-6-methylindolin-5-yl)acetic acid], 0.017 µM; in that of `COc1c(C(=O)N2CCc3c2cc(C)c([C@H](OC(C)(C)C)C(=O)O)c3-c2cc(F)c3c(c2C)CCCO3)cccc1C(F)(F)F` (atropisomer, axis not shown) [Example 180, (S)-2-(tert-Butoxy)-2-((R)-4-(8-Fluoro-5-methylchroman-6-yl)-1-(2-methoxy-3-(trifluoromethyl)benzoyl)-6-methylindolin-5-yl)acetic acid], 0.005 µM.
